Holding throughout (experiment): Inhibition assay, microfluidic LabChip (Nanosyn)
Format in all cases: biochemical

One test deals with T1, CDK2-CYCLINA (Homo sapiens, UniProt P24941).
T1 construct: purchased Millipore
How it is done: (§1) The reaction was terminated by the addition of EDTA. The plates were analyzed using a Caliper LabChip 3000.
(§2) Additional inhibition assays were performed as described above.

A further test concerns the target CDK7 CyclinH (Homo sapiens, UniProt P50613). Here is the method: as §1, §2
The next test has as its target T2, CDK9-CYCLINT1 (Homo sapiens, UniProt P50750).
T2 construct: purchased Carna
The conditions noted are these: Table 3a. Here is the method:
as §1, §2

The next test has as its target T3, CDK4-CYCLIND1 (Homo sapiens, UniProt P11802).
T3 construct: purchased Invitrogen
How it is done:
as §1, §2

The target of another test is T4, CDK6-CYCLIND3 (Homo sapiens, UniProt Q00534).
T4 construct: purchased Carna
Here is the method:
as §1, §2

The mark [1] stands for this setting: Table 2, ATP 200 μM, read-out: CDK4 IC50.
Setting [2] is: Table 2, ATP 300 μM, read-out: CDK6 IC50.

pIC50: −log10 of the molar value. Where two headings read alike, the source gives them in different places.

T3 sequence (P11802 whole entry): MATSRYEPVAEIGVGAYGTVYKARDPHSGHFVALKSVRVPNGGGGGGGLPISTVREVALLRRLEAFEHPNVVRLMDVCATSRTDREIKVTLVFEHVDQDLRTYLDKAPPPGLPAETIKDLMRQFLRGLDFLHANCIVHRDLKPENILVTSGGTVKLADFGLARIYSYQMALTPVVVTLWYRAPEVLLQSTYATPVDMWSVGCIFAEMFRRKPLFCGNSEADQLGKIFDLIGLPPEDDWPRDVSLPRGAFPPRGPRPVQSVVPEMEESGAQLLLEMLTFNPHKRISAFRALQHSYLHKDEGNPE
T3 sequence (P24385 whole entry partner): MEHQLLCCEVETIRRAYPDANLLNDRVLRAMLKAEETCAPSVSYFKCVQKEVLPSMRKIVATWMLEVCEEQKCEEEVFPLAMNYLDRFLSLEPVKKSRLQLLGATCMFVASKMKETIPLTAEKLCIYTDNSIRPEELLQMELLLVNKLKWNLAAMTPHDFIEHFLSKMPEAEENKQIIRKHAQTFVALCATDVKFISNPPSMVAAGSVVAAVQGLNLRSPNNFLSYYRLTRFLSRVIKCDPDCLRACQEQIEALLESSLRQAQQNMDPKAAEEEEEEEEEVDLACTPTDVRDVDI
Chain of CDK7 CyclinH (P50613 whole entry): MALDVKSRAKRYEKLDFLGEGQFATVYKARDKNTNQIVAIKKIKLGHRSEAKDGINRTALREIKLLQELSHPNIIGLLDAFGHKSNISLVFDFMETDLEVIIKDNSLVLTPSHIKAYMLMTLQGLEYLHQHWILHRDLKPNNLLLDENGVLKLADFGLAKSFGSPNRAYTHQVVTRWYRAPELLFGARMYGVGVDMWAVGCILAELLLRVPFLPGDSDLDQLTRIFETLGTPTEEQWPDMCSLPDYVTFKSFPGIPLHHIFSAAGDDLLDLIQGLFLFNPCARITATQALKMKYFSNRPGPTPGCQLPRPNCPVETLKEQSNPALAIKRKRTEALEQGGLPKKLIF
Chain of CDK7 CyclinH (P51946 whole entry partner): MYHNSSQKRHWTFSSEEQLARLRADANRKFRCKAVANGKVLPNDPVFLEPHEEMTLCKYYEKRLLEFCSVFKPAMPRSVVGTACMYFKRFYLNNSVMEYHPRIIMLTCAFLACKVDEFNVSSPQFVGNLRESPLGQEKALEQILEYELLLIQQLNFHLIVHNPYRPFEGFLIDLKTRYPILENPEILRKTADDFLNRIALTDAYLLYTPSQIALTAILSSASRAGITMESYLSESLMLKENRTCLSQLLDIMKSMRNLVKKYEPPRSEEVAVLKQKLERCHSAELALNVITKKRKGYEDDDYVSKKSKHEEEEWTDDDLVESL
Chain of CDK7 CyclinH (P51948 whole entry partner): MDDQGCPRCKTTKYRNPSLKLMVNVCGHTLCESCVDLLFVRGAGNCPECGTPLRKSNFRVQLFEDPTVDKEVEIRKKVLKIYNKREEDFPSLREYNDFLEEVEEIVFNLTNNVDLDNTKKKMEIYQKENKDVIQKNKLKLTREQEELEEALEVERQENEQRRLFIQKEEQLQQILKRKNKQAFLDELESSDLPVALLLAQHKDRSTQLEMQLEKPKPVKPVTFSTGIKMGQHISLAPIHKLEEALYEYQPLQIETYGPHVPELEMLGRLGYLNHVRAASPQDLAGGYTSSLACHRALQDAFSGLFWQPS
T4 sequence (Q00534 whole entry): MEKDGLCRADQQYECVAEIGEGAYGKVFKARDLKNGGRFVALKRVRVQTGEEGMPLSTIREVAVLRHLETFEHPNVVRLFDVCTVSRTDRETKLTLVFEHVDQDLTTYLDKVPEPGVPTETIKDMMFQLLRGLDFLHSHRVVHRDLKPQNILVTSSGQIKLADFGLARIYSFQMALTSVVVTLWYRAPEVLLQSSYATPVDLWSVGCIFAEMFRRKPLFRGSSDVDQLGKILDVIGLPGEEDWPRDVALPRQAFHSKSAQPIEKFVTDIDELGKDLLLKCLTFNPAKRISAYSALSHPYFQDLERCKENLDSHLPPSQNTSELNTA
T4 sequence (P30281 whole entry partner): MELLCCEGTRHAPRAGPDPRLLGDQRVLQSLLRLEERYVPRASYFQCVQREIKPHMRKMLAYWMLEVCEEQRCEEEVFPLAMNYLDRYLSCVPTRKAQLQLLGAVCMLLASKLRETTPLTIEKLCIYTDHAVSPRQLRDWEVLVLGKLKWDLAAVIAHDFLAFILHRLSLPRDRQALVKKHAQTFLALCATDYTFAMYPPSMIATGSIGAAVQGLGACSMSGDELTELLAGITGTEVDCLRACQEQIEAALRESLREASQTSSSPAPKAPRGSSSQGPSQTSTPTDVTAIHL
T2 sequence (P50750 whole entry): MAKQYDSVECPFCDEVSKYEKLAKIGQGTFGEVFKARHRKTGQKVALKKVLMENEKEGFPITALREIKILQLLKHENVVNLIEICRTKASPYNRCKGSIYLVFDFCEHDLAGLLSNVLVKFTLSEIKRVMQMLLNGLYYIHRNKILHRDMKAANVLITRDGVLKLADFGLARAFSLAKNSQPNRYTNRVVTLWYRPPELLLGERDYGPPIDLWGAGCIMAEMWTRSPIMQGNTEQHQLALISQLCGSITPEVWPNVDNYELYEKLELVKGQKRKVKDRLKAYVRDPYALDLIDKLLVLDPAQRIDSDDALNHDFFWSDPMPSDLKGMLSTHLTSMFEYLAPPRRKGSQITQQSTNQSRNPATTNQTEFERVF
T2 sequence (O60563 whole entry partner): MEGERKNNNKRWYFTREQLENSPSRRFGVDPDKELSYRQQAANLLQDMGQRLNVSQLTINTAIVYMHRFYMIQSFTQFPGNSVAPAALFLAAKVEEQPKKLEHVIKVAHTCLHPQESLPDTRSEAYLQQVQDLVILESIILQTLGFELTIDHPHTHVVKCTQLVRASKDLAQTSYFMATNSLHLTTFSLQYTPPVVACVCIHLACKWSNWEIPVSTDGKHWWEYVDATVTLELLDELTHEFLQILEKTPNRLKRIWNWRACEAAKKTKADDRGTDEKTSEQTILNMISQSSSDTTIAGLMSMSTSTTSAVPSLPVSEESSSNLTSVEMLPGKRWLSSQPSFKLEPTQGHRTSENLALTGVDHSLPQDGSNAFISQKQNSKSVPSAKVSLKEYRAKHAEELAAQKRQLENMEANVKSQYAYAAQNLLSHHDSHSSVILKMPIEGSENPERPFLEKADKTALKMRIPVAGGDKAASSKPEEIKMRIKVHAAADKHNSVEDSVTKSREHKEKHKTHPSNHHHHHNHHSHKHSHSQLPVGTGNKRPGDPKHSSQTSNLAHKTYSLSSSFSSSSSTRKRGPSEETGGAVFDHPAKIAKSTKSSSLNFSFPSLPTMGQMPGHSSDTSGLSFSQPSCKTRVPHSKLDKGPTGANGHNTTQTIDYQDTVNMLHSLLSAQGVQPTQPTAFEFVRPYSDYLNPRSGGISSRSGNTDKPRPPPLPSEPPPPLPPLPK

Take `CN(C)C(=O)c1cc2cnc(Nc3ccc(N4CCNCC4)c(F)c3)nc2n1C12CC(C1)C2` [Compound A85, 7-(bicyclo[1.1.1]pentan-1-yl)-2-((3-fluoro-4-(piperazin-1-yl)phenyl)amino)-N,N-dimethyl-7H-pyrrolo[2,3-d]pyrimidine-6-carboxamide]: the negative logarithm of the IC50 (pIC50) against CDK2-CYCLINA (Table 3a) is 6.79; on CDK2-CYCLINA (Table 3b), 6.79; on CDK7 CyclinH (Table 3a), 5.94; at CDK7 CyclinH (Table 3b), 5.94.
With `CN(C)C(=O)c1cc2cnc(Nc3ccc(N4CCNCC4)cc3)nc2n1C12CC(C1)C2` [Compound A83, 7-(bicyclo[1.1.1]pentan-1-yl)-N,N-dimethyl-2-((4-(piperazin-1-yl)phenyl)amino)-7H-pyrrolo[2,3-d]pyrimidine-6-carboxamide], the pIC50 against CDK2-CYCLINA (Table 3a) was 6.54; against CDK2-CYCLINA (Table 3b), 6.54; at CDK9-CYCLINT1, 7.90; at CDK4-CYCLIND1 (Table 3a, read-out: CDK4 CyclinD1 IC50), 8.17; at CDK4-CYCLIND1 (Table 3b, read-out: CDK4 CyclinD1 IC50) it was 8.17; on CDK6-CYCLIND3 (Table 3a, read-out: CDK6 CyclinD3 IC50) it was 7.82. For the same compound, the pIC50 is 7.82 at CDK6-CYCLIND3 (Table 3b, read-out: CDK6 CyclinD3 IC50); 5.47 on CDK7 CyclinH (Table 3a); 5.47 against CDK7 CyclinH (Table 3b).
For the compound `CN1CCN(c2cnc(Nc3ncc4c(F)c(C(=O)N(C)C)n(C5CCCC5)c4n3)cc2C(F)(F)F)CC1` [Compound A18, 7-cyclopentyl-5-fluoro-N,N-dimethyl-2-((5-(4-methylpiperazin-1-yl)-4-(trifluoromethyl)pyridin-2-yl)amino)-7H-pyrrolo[2,3-d]pyrimidine-6-carboxamide], the negative logarithm of the IC50 (pIC50) at CDK4-CYCLIND1 (setting [1]) is 5.56; on CDK6-CYCLIND3 (setting [2]) it was 4.90.
`CN(C)CCOc1ccc(Nc2ncc3c(F)c(C(=O)N(C)C)n(C4CCCC4)c3n2)nc1` [Compound A3, 7-cyclopentyl-2-((5-(2-(dimethylamino)ethoxy)pyridin-2-yl)amino)-5-fluoro-N,N-dimethyl-7H-pyrrolo[2,3-d]pyrimidine-6-carboxamide]: the pIC50 on CDK4-CYCLIND1 (setting [1]) was 7.32; at CDK6-CYCLIND3 (setting [2]) it was 7.19.
Consider `CN(C)C(=O)c1cc2cnc(Nc3ccc(OCCN4CCCC4)nc3)nc2n1C1CCCC1` [Compound A8, 7-cyclopentyl-N,N-dimethyl-2-((6-(2-(pyrrolidin-1-yl)ethoxy)pyridin-3-yl)amino)-7H-pyrrolo[2,3-d]pyrimidine-6-carboxamide], for which the negative logarithm of the IC50 (pIC50) on CDK4-CYCLIND1 (setting [1]) was 8.30; at CDK6-CYCLIND3 (setting [2]), 7.63.
In the same order, the values of `CN(C)C(=O)c1cc2cnc(Nc3ccc(N4CCNCC4)cn3)nc2n1C12CC(C1)C2` [Compound A12, 7-(bicyclo[1.1.1]pentan-1-yl)-N,N-dimethyl-2-((5-(piperazin-1-yl)pyridin-2-yl)amino)-7H-pyrrolo[2,3-d]pyrimidine-6-carboxamide] are 7.91 and 8.00.
Regarding `CC(C)N1CCN(c2ccc(Nc3ncc4c(F)c(C(=O)N(C)C)n(C5CCCC5)c4n3)cc2)CC1` [Compound A36, 7-cyclopentyl-5-fluoro-2-((4-(4-isopropylpiperazin-1-yl)phenyl)amino)-N,N-dimethyl-7H-pyrrolo[2,3-d]pyrimidine-6-carboxamide], the negative-log IC50 (pIC50) at CDK4-CYCLIND1 (setting [1]) was 8.09; on CDK6-CYCLIND3 (setting [2]), 7.49.
Regarding `CN(C)C(=O)c1cc2cnc(NC3CCN(S(C)(=O)=O)CC3)nc2n1C12CC(C1)C2` [Compound A75, 7-(bicyclo[1.1.1]pentan-1-yl)-N,N-dimethyl-2-((1-(methylsulfonyl)piperidin-4-yl)amino)-7H-pyrrolo[2,3-d]pyrimidine-6-carboxamide], the pIC50 on CDK9-CYCLINT1 was 7.94; on CDK7 CyclinH (Table 3a) it was 5.09; on CDK7 CyclinH (Table 3b), 5.09.
Turning to `CN(C)C(=O)c1cc2cnc(Nc3ccc(N4CCNCC4)cc3)nc2n1C12CC(C1)C2` [Compound A16, 7-(bicyclo[1.1.1]pentan-1-yl)-N,N-dimethyl-2-((4-(piperazin-1-yl)phenyl)amino)-7H-pyrrolo[2,3-d]pyrimidine-6-carboxamide], the negative logarithm of the IC50 (pIC50) at CDK4-CYCLIND1 (setting [1]) was 8.53; on CDK6-CYCLIND3 (setting [2]) it was 8.11.
For `CN1CCN(c2ccc(Nc3ncc4c(F)c(C(=O)N(C)C)n(C5CCCC5)c4n3)cc2)CC1` [Compound A19, 7-cyclopentyl-5-fluoro-N,N-dimethyl-2-((4-(4-methylpiperazin-1-yl)phenyl)amino)-7H-pyrrolo[2,3-d]pyrimidine-6-carboxamide], in that order: 7.81 and 7.34.
Take `CN(C)C(=O)c1cc2cnc(Nc3ccc(OCCN4CCCC4)cn3)nc2n1C1CCCC1` [Compound A5, 7-cyclopentyl-N,N-dimethyl-2-((5-(2-(pyrrolidin-1-yl)ethoxy)pyridin-2-yl)amino)-7H-pyrrolo[2,3-d]pyrimidine-6-carboxamide]: the values for the pIC50 on CDK4-CYCLIND1 (setting [1]) and at CDK6-CYCLIND3 (setting [2]) were 7.71 and 7.30, respectively.
For `CN(C)C(=O)c1cc2cnc(Nc3ccc(OCCN4CCCC4)c(F)c3)nc2n1C1CCCC1` [Compound A32, 7-cyclopentyl-2-((3-fluoro-4-(2-(pyrrolidin-1-yl)ethoxy)phenyl)amino)-N,N-dimethyl-7H-pyrrolo[2,3-d]pyrimidine-6-carboxamide], the pIC50 is 8.71 on CDK4-CYCLIND1 (setting [1]) and 8.00 on CDK6-CYCLIND3 (setting [2]).
For the compound `CC(C)N1CC=C(c2ccc(Nc3ncc4c(F)c(C(=O)N(C)C)n(C5CCCC5)c4n3)nc2)CC1` [Compound A21, 7-cyclopentyl-5-fluoro-2-((1′-isopropyl-1′,2′,3′,6′-tetrahydro-[3,4′-bipyridin]-6-yl)amino)-N,N-dimethyl-7H-pyrrolo[2,3-d]pyrimidine-6-carboxamide], the pIC50 on CDK4-CYCLIND1 (setting [1]) was 7.29; on CDK6-CYCLIND3 (setting [2]), 7.01.
Consider `CN(C)C(=O)c1c(F)c2cnc(Nc3ccc(OCCN4CCCC4)c(F)c3)nc2n1C1CCCC1` [Compound A33, 7-cyclopentyl-5-fluoro-2-((3-fluoro-4-(2-(pyrrolidin-1-yl)ethoxy)phenyl)amino)-N,N-dimethyl-7H-pyrrolo[2,3-d]pyrimidine-6-carboxamide], for which the pIC50 on CDK4-CYCLIND1 (setting [1]) is 8.00; at CDK6-CYCLIND3 (setting [2]) it was 7.43.
Turning to `CCN1CCN(Cc2ccc(Nc3ncc4cc(C(=O)N(C)C)n(C56CC(C5)C6)c4n3)nc2)CC1` [Compound A41, 7-(bicyclo[1.1.1]pentan-1-yl)-2-((5-((4-ethylpiperazin-1-yl)methyl)pyridin-2-yl)amino)-N,N-dimethyl-7H-pyrrolo[2,3-d]pyrimidine-6-carboxamide], the pIC50 on CDK4-CYCLIND1 (setting [1]) is 7.67; on CDK6-CYCLIND3 (setting [2]), 7.40.
Consider `CN(C)CCOc1ccc(Nc2ncc3c(F)c(C(=O)N(C)C)n(C4CCCC4)c3n2)cc1` [Compound A7, 7-cyclopentyl-2-((4-(2-(dimethylamino)ethoxy)phenyl)amino)-5-fluoro-N,N-dimethyl-7H-pyrrolo[2,3-d]pyrimidine-6-carboxamide], for which the results for the negative-log IC50 (pIC50) at CDK4-CYCLIND1 (setting [1]) and on CDK6-CYCLIND3 (setting [2]) were 7.65 and 7.20, respectively.
In the same order, the values of `CN(C)C(=O)c1c(F)c2cnc(N3CCN(c4ccc(C#N)cc4)CC3)nc2n1C1CCCC1` [Compound A29, 2-(4-(4-cyanophenyl)piperazin-1-yl)-7-cyclopentyl-5-fluoro-N,N-dimethyl-7H-pyrrolo[2,3-d]pyrimidine-6-carboxamide] are < 4.52 and < 4.52.
In the same order, the values of `CN(C)C(=O)c1cc2cnc(Nc3ccc(N4CCN5CCC4CC5)cn3)nc2n1C1CCCC1` [Compound A9, 2-((5-(1,4-diazabicyclo[3.2.2]nonan-4-yl)pyridin-2-yl)amino)-7-cyclopentyl-N,N-dimethyl-7H-pyrrolo[2,3-d]pyrimidine-6-carboxamide] are 7.68 and 7.26.
Regarding `CN(C)C(=O)c1cc2cnc(Nc3ccc(N4CCN(C#N)CC4)cn3)nc2n1C1CCCC1` [Compound A23, 2-((5-(4-cyanopiperazin-1-yl)pyridin-2-yl)amino)-7-cyclopentyl-N,N-dimethyl-7H-pyrrolo[2,3-d]pyrimidine-6-carboxamide], the negative logarithm of the IC50 (pIC50) was 7.46 at CDK4-CYCLIND1 (setting [1]) and 7.01 on CDK6-CYCLIND3 (setting [2]).
With `CN(C)C(=O)c1c(F)c2cnc(Nc3cc(C(F)(F)F)c(N4CCNCC4)cn3)nc2n1C1CCCC1` [Compound A25, 7-cyclopentyl-5-fluoro-N,N-dimethyl-2-((5-(piperazin-1-yl)-4-(trifluoromethyl)pyridin-2-yl)amino)-7H-pyrrolo[2,3-d]pyrimidine-6-carboxamide], the pIC50 on CDK4-CYCLIND1 (setting [1]) was 5.64; at CDK6-CYCLIND3 (setting [2]), 5.31.
With `CN1CCN(c2ccc(Nc3ncc4c(F)c(C(=O)N(C)C)n(C5CCCC5)c4n3)nc2)CC1` [Compound A2], the results for the negative-log IC50 (pIC50) at CDK4-CYCLIND1 (setting [1]) and on CDK6-CYCLIND3 (setting [2]) were 7.42 and 7.27, respectively.
`CN(C)C(=O)c1cc2cnc(Nc3ccc(N4CC5(CNC5)C4)c(F)c3)nc2n1C12CC(C1)C2` [Compound A47, 7-(bicyclo[1.1.1]pentan-1-yl)-2-((3-fluoro-4-(2,6-diazaspiro[3.3]heptan-2-yl)phenyl)amino)-N,N-dimethyl-7H-pyrrolo[2,3-d]pyrimidine-6-carboxamide]: the negative-log IC50 (pIC50) is 8.28 at CDK4-CYCLIND1 (setting [1]) and 7.78 on CDK6-CYCLIND3 (setting [2]).
In the case of `CN(C)CCOc1ccc(Nc2ncc3cc(C(=O)N(C)C)n(C45CC(C4)C5)c3n2)nc1` [Compound A15, 7-(bicyclo[1.1.1]pentan-1-yl)-2-((5-(2-(dimethylamino)ethoxy)pyridin-2-yl)amino)-N,N-dimethyl-7H-pyrrolo[2,3-d]pyrimidine-6-carboxamide], the figures for the negative logarithm of the IC50 (pIC50) on CDK4-CYCLIND1 (setting [1]) and on CDK6-CYCLIND3 (setting [2]) were 7.50 and 7.62, respectively.
Regarding `CN(C)C(=O)c1cc2cnc(Nc3cc(C(F)(F)F)c(N4CCNCC4)cn3)nc2n1C1CCCC1` [Compound A24, 7-cyclopentyl-N,N-dimethyl-2-((5-(piperazin-1-yl)-4-(trifluoromethyl)pyridin-2-yl)amino)-7H-pyrrolo[2,3-d]pyrimidine-6-carboxamide], the pIC50 on CDK4-CYCLIND1 (setting [1]) is 6.34; at CDK6-CYCLIND3 (setting [2]), 5.84.

The values are drawn from patent US20220056037A1 (SPV THERAPEUTICS INC., priority 2018, published 2022).
